These results are taken from patent EP4501917A1, “3,4-DIHYDROQUINOXALINE-2-CARBOXIMIDE DERIVATIVE COMPOUND AND PHARMACEUTICAL COMPOSITION COMPRISING SAME FOR PREVENTING OR TREATING CANCER DISEASE” (Daegu-Gyeongbuk Medical Innovation Foundation, priority 2022, dated 2023).

Series [1] can be described thus: Body weight during drug administration, prostate cancer model. The class given is in vivo, nude mice. The conditions noted are these: 50 mg/kg, during the drug administration period, PC-3 model, FIG. 5; result in words. On the procedure:
A prostate cancer model was established by subcutaneously transplanting PC-3 cell lines into nude mice, and the mice were divided into two groups (group 1: vehicle administration group (10% DSMO, 30% PEG400, 60% DW), group 2: 50 mg/kg Example 27 compound administration group). The drug was administered orally once a day for 12 times. To evaluate the therapeutic efficacy, tumors were […] before drug administration and on days 3, 6, 8, 10, 12, and 14 after drug administration, and tumor volumes were measured. Tumor volume (mm^3) was calculated as follows (tumor volume (mm^3) = (A X B^2)/2, where A = tumor long axis, B = tumor short axis), and the results are shown in FIG. 2.

In the next series the target is T1, HDAC11 (Homo sapiens, UniProt Q96DB2).
T1 sequence (Q96DB2 1-347): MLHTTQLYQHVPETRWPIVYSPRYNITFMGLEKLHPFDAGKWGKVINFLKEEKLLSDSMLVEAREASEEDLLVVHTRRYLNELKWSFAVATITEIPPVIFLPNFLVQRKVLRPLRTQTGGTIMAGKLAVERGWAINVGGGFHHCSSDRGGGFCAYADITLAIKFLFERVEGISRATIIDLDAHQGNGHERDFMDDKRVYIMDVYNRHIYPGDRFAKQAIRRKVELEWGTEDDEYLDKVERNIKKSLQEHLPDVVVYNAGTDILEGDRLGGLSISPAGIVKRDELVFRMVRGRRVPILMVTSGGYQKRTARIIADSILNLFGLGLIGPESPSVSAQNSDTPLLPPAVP
The series can be described thus: Selective HDAC inhibition, HDAC Fluorogenic assay kit. The conditions noted are these: read-out: HDAC11 enzyme activity (%).

The next series addresses T2, HDAC8 (Homo sapiens, UniProt Q9BY41).
T2 construct: purchased BPS bioscience
T2 sequence (Q9BY41 1-377): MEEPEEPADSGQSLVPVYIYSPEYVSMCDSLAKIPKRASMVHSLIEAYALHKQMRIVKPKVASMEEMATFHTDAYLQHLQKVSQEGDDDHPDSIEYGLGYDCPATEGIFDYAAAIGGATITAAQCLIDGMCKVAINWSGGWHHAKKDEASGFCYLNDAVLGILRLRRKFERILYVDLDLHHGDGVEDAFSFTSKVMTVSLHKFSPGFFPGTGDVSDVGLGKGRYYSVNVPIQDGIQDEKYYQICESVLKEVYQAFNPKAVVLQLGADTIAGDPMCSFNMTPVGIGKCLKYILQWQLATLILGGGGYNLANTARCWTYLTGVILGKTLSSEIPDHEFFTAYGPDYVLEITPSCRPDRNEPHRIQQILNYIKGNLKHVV
Described as above. The class given is biochemical.

Another series concerns the target HDAC9 (Homo sapiens, UniProt Q9UKV0). The description is as above. The conditions noted are these: read-out: HDAC9 enzyme activity (%).
The subject of the next series is Huh-7 cell lines. The series can be described thus: Liver cancer model, Huh-7 cell lines subcutaneously transplanted, tumor volume and weight. The series is classed as in vivo, nude mice. Conditions: result in words. The procedure:
In addition, a liver cancer model was established by subcutaneously transplanting Huh-7 cell lines into nude mice. After establishing the liver cancer model, the mice were divided into two groups (group 1: vehicle administration group, group 2: 50 mg/kg Example 27 compound administration group). The drug was administered once a day for 12 times. To evaluate therapeutic efficacy, tumor volume was measured before drug administration and on days 4, 7, 10, 13, and 15 after drug administration. Tumor volume (mm^3) was calculated as follows (tumor volume (mm^3) = (A X B^2)/2, where A = tumor long axis, B = tumor short axis). Body weight was measured before administration and on days 4, 7, 10, 13, and 15 after drug administration during the drug administration period. Tumor was excised on day 15 after drug treatment and body weight was measured.

Each structure is given as a SMILES string.

Sequence of HDAC9 (Q9UKV0 whole entry): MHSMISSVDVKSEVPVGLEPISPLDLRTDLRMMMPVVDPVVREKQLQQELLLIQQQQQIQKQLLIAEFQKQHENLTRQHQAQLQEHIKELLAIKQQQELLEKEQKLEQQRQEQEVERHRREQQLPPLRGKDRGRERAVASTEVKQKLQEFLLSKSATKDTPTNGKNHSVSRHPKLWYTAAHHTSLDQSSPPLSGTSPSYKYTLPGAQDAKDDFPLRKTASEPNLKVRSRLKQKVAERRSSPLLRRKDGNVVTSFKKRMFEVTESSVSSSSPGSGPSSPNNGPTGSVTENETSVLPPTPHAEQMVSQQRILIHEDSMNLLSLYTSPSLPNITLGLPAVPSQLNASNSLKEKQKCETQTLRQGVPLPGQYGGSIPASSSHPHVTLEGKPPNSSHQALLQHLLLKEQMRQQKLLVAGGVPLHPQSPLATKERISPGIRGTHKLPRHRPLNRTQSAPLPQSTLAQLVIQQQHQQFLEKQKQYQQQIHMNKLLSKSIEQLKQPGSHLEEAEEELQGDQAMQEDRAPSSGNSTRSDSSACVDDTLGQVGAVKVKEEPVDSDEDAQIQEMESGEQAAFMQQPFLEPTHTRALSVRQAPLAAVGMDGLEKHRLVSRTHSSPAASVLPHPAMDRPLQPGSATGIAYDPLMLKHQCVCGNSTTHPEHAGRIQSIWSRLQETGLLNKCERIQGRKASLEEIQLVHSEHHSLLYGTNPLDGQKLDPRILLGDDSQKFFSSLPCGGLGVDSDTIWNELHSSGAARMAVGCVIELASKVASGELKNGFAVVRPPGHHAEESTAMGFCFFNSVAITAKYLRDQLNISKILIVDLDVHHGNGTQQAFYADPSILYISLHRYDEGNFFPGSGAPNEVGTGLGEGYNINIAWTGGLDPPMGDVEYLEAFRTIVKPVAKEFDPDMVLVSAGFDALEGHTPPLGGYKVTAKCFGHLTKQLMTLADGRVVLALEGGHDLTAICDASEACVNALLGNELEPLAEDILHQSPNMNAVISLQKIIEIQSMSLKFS
Procedure for HDAC11: (§1) For analysis, HDAC substrate 3 was diluted in buffer to a concentration of 200 µM and used in HDAC 1, 2, 3, 6, and 10 assays, HDAC substrate 2A was diluted in buffer to a concentration of 200 µM and used in HDAC 4, 7, 9, and 11 assays, HDAC substrate 2A was diluted in buffer to a concentration of 20 µM and used in HDAC 8 assays. For the HDAC 11 assay, a dedicated buffer included in the kit was used separately, and the same buffer was used for the remaining assays. The compound of the Example was diluted to 1 mM (1% DMSO concentration) using DMSO to obtain a final concentration of 10 µM, and prepared by diluting 1/10 with assay buffer. In a 96-well black round-bottom plate, 5 µL of the diluted compound of the Example, 5 µL of the diluted HDAC substrate, 5 µL of BSA (1 mg/ml), 5 µL of the HDAC enzyme diluted to the appropriate concentration, and 30 µL of assay buffer were added, and the enzyme reaction was performed at 37°C for 30 minutes. […] Afterwards, 50 µL of 2X HDAC developer was added to each well. After reacting for 15 minutes at room temperature, the fluorescence values at excitation wavelengths of 350-380 nm and emission wavelengths of 440-460 nm were measured using a microplate reader (Synergy Neo).
Procedure for HDAC8: as §1
Procedure for HDAC9: as §1

In the case of `Cc1cc2nc(C(=O)NCCc3c[nH]c4ccc(O)cc34)c(=O)n(C[C@H](O)[C@H](O)[C@H](O)CO)c2cc1C` [Example 27, N-(2-(5-hydroxy-1H-indol-3-yl)ethyl)-6,7-dimethyl-3-oxo-4-((2S,3S,4R)-2,3,4,5-tetrahydroxypentyl)-3,4-dihydroquinoxaline-2-carboxamide], the “body weight of the mice” value in series [1] is “no rapid weight loss was confirmed”. The remaining activity at 10 µM on HDAC11 turned out to be 97.3%; on HDAC8 (final concentration 10 µM, HDAC substrate 2A 20 µM, positive control (1% DMSO) set to 100, read-out: HDAC8 enzyme activity (%)), 14.1%; on HDAC9 it was 66.5%. For the same compound, the “selective inhibitory effect on HDAC8” value at HDAC8 (result in words, HDAC8 versus HDAC1, 2, 3, 4, 6, 7, 9, 10, 11, summary of Table 3) was “selective and excellent inhibitory activity only against HDAC8”. Further, in the series with Huh-7 cell lines (50 mg/kg once a day for 12 times, until day 15, **p<0.005 compared with vehicle, FIG. 7A), the tumor volume result is given as “tumor growth inhibitory effect”. Further, the tumor weight result in the series on Huh-7 cell lines (50 mg/kg, tumor removed on day 15, ***p<0.0005 compared with vehicle, FIGS. 7B and 7C) is “tumor weight of the vehicle group was significantly higher”.
